Laboratory results as given in patent US20230346670A1, “Prebiotic Oral Care Compositions and Methods” (Colgate-Palmolive Company, priority 2020, published 2023).
Marks after values point to notes of the source that are not given here.

Columns and labels:
Format in all cases: cell-based
[1] = tested on: A. actinomycetemcomitans virulence genes; assay: Virulence gene expression in multi-species biofilm (SYBR RT-qPCR)
Protocol: (§1) Biofilms are grown vertically on Calcium Deficient Hydroxyapatite (CAD-HA) disks (Hitemco Medical, Old Bethpage, USA) using the Amsterdam Active Adhesion model. Biofilms are allowed to establish during 24 h (37° C., 170 rpm) under microaerophilic conditions (6% O2, 7% CO2, 7% H2, 80% N2). After this 24 h, disks are rinsed 3 times a day for 3 minutes (RT, 250 rpm), for 3 consecutive days, by transferring the lid containing the disks to a new 24-well plate containing 2 mL/well of the appropriate substrate solution. As a negative control, PBS (pH 5.7) without substrate supplementation is used.
(§2) The virulence of the substrate-treated multi-species biofilms are evaluated by analyzing the relative expression of 33 genes that are recognized as being related to some form of virulence and from 4 periodontal pathogens.
(§3) Expression of bacterial virulence genes is analyzed through SYBR RT-qPCR and normalized for bacterial housekeeping gene expression. […] These effects are illustrated in Tables 6a and 6b:
(§4) Note, for Tables 6a and 6b, that fold changes in virulence gene expression are determined relative to the control condition through the 2^^-ΔΔCt method and are shown as the geometric mean (C.I.) (n = 3) of the 2^^-ΔΔ ^Ct values. All substrates are dissolved in PBS at a concentration of 1 M (upper part) or 1%(w/v) (lower part). Values between 0 and 1 represent relative downregulation, values >1 represent relative upregulation. […] NADG: N-acetyl-D-glucosamine; C.I.: 95% confidence interval.

[2] = tested on: P. gingivalis virulence genes; assay: as above; details: relative to control, 2^-ΔΔCt, n = 3
Protocol: as §1, §2, §3, §4

[3] = tested on: F. nucleatum virulence genes; assay: as above; details: relative to control = 1, 2^-ΔΔCt, n = 3
Protocol: as §1, §2, §3
as §4, with “Table 6c,” for “Tables 6a and 6b, that”, “2^^-ΔΔCt” for “2^^-ΔΔ ^Ct”

A. naeslundii = assay: Multi-species biofilm composition, absolute abundance (Geq/mL); details: repeated rinsing
Protocol: as §1
(§5) N-acetyl-D-glucosamine (NADG), α-D-lactose, D-(+)-trehalose and D-(+)-raffinose are selected to determine their effects on multi-species biofilm composition. Repeated rinsing of the biofilms with the substrates at a concentration of 1 M results in a significant decrease in absolute numbers in at least four of the pathogenic bacterial species tested in the assay, in comparison to the control, the results of which are described in Table 1 below. Note, NADG decreased absolute numbers of S. sobrinus. Absolute abundances of bacterial species are shown as mean ± SD (n = 3) logarithmic values of the genome equivalents per millilitre (log(Geq/mL)).

S. oralis = assay: as above; details: repeated rinsing
Protocol: as §1, §5

S. sobrinus = assay: as above; details: repeated rinsing
Protocol: as §1, §5

P. gingivalis = assay: as above; details: repeated rinsing
Protocol: as §1, §5

S. gordonii = assay: as above; details: repeated rinsing
Protocol: as §1, §5

P. intermedia = assay: as above; details: repeated rinsing
Protocol: as §1, §5

S. mitis = assay: as above; details: repeated rinsing
Protocol: as §1, §5

A. actinomycetemcomitans = assay: as above; details: repeated rinsing
Protocol: as §1, §5

multi-species biofilms = assay: Organic acid levels in supernatant of multi-species biofilms (ion chromatography); details: >0 production, <0 consumption, n = 3
Protocol: as §1
Levels of organic acids in the filter sterilized supernatant of the multi-species biofilms are measured using a 761 Compact Ion Chromatograph (Metrhohm, Switzerland) with a Metrosep Organic acids Guard/4.6 guard column. The supernatants from the substrate-treated multi-species biofilms are analyzed to gain more insight into the influence of the substrates on organic acid consumption/production.

[4] = lower part of Table 6a, substrate 1%(w/v), relative to control = 1
[5] = substrate 1 M, relative to control = 1, 2^-ΔΔCt, n = 3
[6] = substrate 1 M, listed as D-(+)-trehalose

OC[C@H]1O[C@H](O[C@H]2O[C@H](CO)[C@@H](O)[C@H](O)[C@H]2O)[C@H](O)[C@@H](O)[C@@H]1O [D-trehalose, D-(+)-trehalose]
fold change in aae expression, geometric mean (95% C.I.) [1, 4]: 0.95 (0.33-2.78) fold | fold change in apaH expression, geometric mean (95% C.I.) [1, 4]: 0.64 (0.37-1.10) fold | fold change in cdtB expression, geometric mean (95% C.I.) [1, 4]: 0.67 (0.51-0.89) fold | fold change in emaA expression, geometric mean (95% C.I.) [1, 4]: 0.67 (0.49-0.90) fold | fold change in flp expression, geometric mean (95% C.I.) [1, 4]: 0.48 (0.07-3.50) fold | fold change in ltxA expression, geometric mean (95% C.I.) [1, 4]: 0.08 (0.01-0.73)^∗ fold | fold change in omp29 expression, geometric mean (95% C.I.) [1, 4]: 0.51 (0.19-1.34)^∗ fold | fold change in omp100 expression, geometric mean (95% C.I.) [1, 4]: 0.43 (0.26-0.72)^∗ fold | fold change in orf859 expression, geometric mean (95% C.I.) [1, 4]: 1.04 (0.53-2.03) fold | fold change in pgA expression, geometric mean (95% C.I.) [1, 4]: 0.91 (0.81-1.03) fold | fold change in vapA expression, geometric mean (95% C.I.) [1, 4]: 1.02 (0.87-1.21) fold | fold change in vppA expression, geometric mean (95% C.I.) [1, 4]: 0.48 (0.42-0.55)^∗ fold | fold change in aae expression, geometric mean (95% C.I.) [1, 5]: 0.03 (0.01-0.15)^∗ fold | fold change in apaH expression, geometric mean (95% C.I.) [1, 5]: 0.16 (0.04-0.56)^∗ fold | fold change in cdtB expression, geometric mean (95% C.I.) [1, 5]: 0.08 (0.03-0.21)^∗ fold | fold change in emaA expression, geometric mean (95% C.I.) [1, 5]: 0.11 (0.04-0.32)^∗ fold | fold change in flp expression, geometric mean (95% C.I.) [1, 5]: 0.71 (0.30-1.67) fold | fold change in ltxA expression, geometric mean (95% C.I.) [1, 5]: 0.01 (0.00-0.01)^∗ fold | fold change in omp29 expression, geometric mean (95% C.I.) [1, 5]: 0.74 (0.18-3.00) fold | fold change in omp100 expression, geometric mean (95% C.I.) [1, 5]: 0.09 (0.01-1.11)^∗ fold | fold change in orf859 expression, geometric mean (95% C.I.) [1, 5]: 0.14 (0.02-0.87)^∗ fold | fold change in pgA expression, geometric mean (95% C.I.) [1, 5]: 18.24 (5.89-56.51)^∗ fold | fold change in vapA expression, geometric mean (95% C.I.) [1, 5]: 0.32 (0.08-1.26)^∗ fold | fold change in vppA expression, geometric mean (95% C.I.) [1, 5]: 0.32 (0.01-4.50)^∗ fold | fold change in pgA expression, geometric mean (95% C.I.) ([1]; substrate 1 M, relative to control = 1, 2^-ΔΔCt, n = 3, listed as D-(+)-trehalose): 18.2 fold | fold change in fimA expression, geometric mean (95% C.I.) ([2]; substrate 1 % (w/v)): 1.58 (0.86-2.90) fold | fold change in kgp expression, geometric mean (95% C.I.) ([2]; substrate 1 % (w/v)): 3.24 (1.63-6.44)^∗ fold | fold change in partC expression, geometric mean (95% C.I.) ([2]; substrate 1 % (w/v)): 0.71 (0.37-1.35) fold | fold change in rgpA expression, geometric mean (95% C.I.) ([2]; substrate 1 % (w/v)): 1.49 (0.69-3.22) fold | fold change in kgp expression, geometric mean (95% C.I.) ([2]; substrate 1 % (w/v), listed as D-(+)-trehalose): approximately 3.2 fold | fold change in fimA expression, geometric mean (95% C.I.) ([2]; substrate 1 M): 0.13 (0.02-0.96)^∗ fold | fold change in kgp expression, geometric mean (95% C.I.) ([2]; substrate 1 M): <LOD | fold change in partC expression, geometric mean (95% C.I.) ([2]; substrate 1 M): 0.03 (0.00-0.49)^∗ fold | fold change in rgpA expression, geometric mean (95% C.I.) ([2]; substrate 1 M): 0.00 (0.00-0.02)^∗ fold | fold change in ABC transp. perm. (ABC transporter permease) expression, geometric mean (95% C.I.) ([3]; substrate 1% (w/v)): 0.40 (0.15-1.03)^∗ fold | fold change in EF-G expression, geometric mean (95% C.I.) ([3]; substrate 1% (w/v)): 0.12 (0.03-0.55)^∗ fold | fold change in but. -coA transf. (butyrate-acetoacetate CoA-transferase) expression, geometric mean (95% C.I.) ([3]; substrate 1% (w/v)): 0.40 (0.05-3.27) fold | fold change in hemin receptor expression, geometric mean (95% C.I.) ([3]; substrate 1% (w/v)): 0.16 (0.05-0.50)^∗ fold | fold change in hemolysin expression, geometric mean (95% C.I.) ([3]; substrate 1% (w/v)): 0.65 (0.15-2.70) fold | fold change in ompA expression, geometric mean (95% C.I.) ([3]; substrate 1% (w/v)): 0.84 (0.21-3.35) fold | fold change in transposase expression, geometric mean (95% C.I.) ([3]; substrate 1% (w/v)): 1.02 (0.33-3.12) fold | fold change in ABC transp. perm. (ABC transporter permease) expression, geometric mean (95% C.I.) ([3]; substrate 1 M): 32.18 (21.08-49.14)^∗ fold | fold change in EF-G expression, geometric mean (95% C.I.) ([3]; substrate 1 M): 1.18 (0.46-3.02) fold | fold change in but. -coA transf. (butyrate-acetoacetate CoA-transferase) expression, geometric mean (95% C.I.) ([3]; substrate 1 M): 4.28 (1.32-13.86)* fold | fold change in hemin receptor expression, geometric mean (95% C.I.) ([3]; substrate 1 M): 41.19 (20.31-83.52)^∗ fold | fold change in hemolysin expression, geometric mean (95% C.I.) ([3]; substrate 1 M): 12.15 (7.73-19.10)^∗ fold | fold change in ompA expression, geometric mean (95% C.I.) ([3]; substrate 1 M): 1.23 (0.98-1.53) fold | fold change in transposase expression, geometric mean (95% C.I.) ([3]; substrate 1 M): 106.44 (42.35-267.50)^∗ fold | absolute abundance of A. naeslundii (An), mean ± SD log (Geq/mL) (A. naeslundii; substrate 1% (w/v)): 7.6 ± 0.15 log (Geq/mL) | absolute abundance of A. naeslundii (An), mean ± SD log (Geq/mL) (A. naeslundii; substrate 1 M in PBS, n = 3): 4.81 ± 0.47^∗ log (Geq/mL) | absolute abundance of S. oralis, mean ± SD log (Geq/mL) (S. oralis; substrate 1% (w/v)): 6.59 ± 0.42 log (Geq/mL) | absolute abundance of S. oralis, mean ± SD log (Geq/mL) (S. oralis; substrate 1 M in PBS, n = 3): 6.71 ± 0.48 log (Geq/mL) | absolute abundance of S. sobrinus, mean ± SD log (Geq/mL) (S. sobrinus; substrate 1% (w/v)): 5.27 ± 0.19 log (Geq/mL) | absolute abundance of S. sobrinus, mean ± SD log (Geq/mL) (S. sobrinus; substrate 1 M in PBS, n = 3): 7.44 ± 0.18^∗ log (Geq/mL) | absolute abundance of P. gingivalis (Pg), mean ± SD log (Geq/mL) (P. gingivalis; substrate 1% (w/v)): 7.05 ± 0.19 log (Geq/mL) | absolute abundance of P. gingivalis (Pg), mean ± SD log (Geq/mL) (P. gingivalis; substrate 1 M in PBS, n = 3): 4.37 ± 0.29^∗ log (Geq/mL) | absolute abundance of S. gordonii, mean ± SD log (Geq/mL) (S. gordonii; substrate 1% (w/v)): 8.45 ± 0.27 log (Geq/mL) | absolute abundance of S. gordonii, mean ± SD log (Geq/mL) (S. gordonii; substrate 1 M in PBS, n = 3): 9.39 ± 0.31 log (Geq/mL) | absolute abundance of P. intermedia (Pi), mean ± SD log (Geq/mL) (P. intermedia; substrate 1% (w/v)): 7.88 ± 0.33 log (Geq/mL) | absolute abundance of P. intermedia (Pi), mean ± SD log (Geq/mL) (P. intermedia; substrate 1 M in PBS, n = 3): 4.47 ± 0.60^∗ log (Geq/mL) | absolute abundance of S. mitis, mean ± SD log (Geq/mL) (S. mitis; substrate 1% (w/v)): 2.65 ± 0.00 log (Geq/mL) | absolute abundance of S. mitis, mean ± SD log (Geq/mL) (S. mitis; substrate 1 M in PBS, n = 3): 3.15 ± 0.71 log (Geq/mL) | absolute abundance of A. actinomycetemcomitans (Aa), mean ± SD log (Geq/mL) (A. actinomycetemcomitans; substrate 1% (w/v)): 9.28 ± 0.43 log (Geq/mL) | absolute abundance of A. actinomycetemcomitans (Aa), mean ± SD log (Geq/mL) (A. actinomycetemcomitans; substrate 1 M in PBS, n = 3): 7.86 ± 0.22^∗ log (Geq/mL) | acetate level in biofilm supernatant, mean ± SD (multi-species biofilms; substrate 1% (w/v)): 303 ± 13 mg/L | butyrate level in biofilm supernatant, mean ± SD (multi-species biofilms; substrate 1% (w/v)): 1945 ± 9 mg/L | formate level in biofilm supernatant, mean ± SD (multi-species biofilms; substrate 1% (w/v)): 3691 ± 89 mg/L | lactate level in biofilm supernatant, mean ± SD (multi-species biofilms; substrate 1% (w/v)): -125 ± 0 mg/L | propionate level in biofilm supernatant, mean ± SD (multi-species biofilms; substrate 1% (w/v)): 1962 ± 8 mg/L | acetate level in biofilm supernatant, mean ± SD (multi-species biofilms; substrate 1 M): 1021 ± 41^∗ mg/L | butyrate level in biofilm supernatant, mean ± SD (multi-species biofilms; substrate 1 M): 0±0^∗ mg/L | formate level in biofilm supernatant, mean ± SD (multi-species biofilms; substrate 1 M): 75 ± 8^∗ mg/L | lactate level in biofilm supernatant, mean ± SD (multi-species biofilms; substrate 1 M): 4187 ± 200^∗ mg/L | propionate level in biofilm supernatant, mean ± SD (multi-species biofilms; substrate 1 M): 1577 ± 46^∗ mg/L | acetate level in biofilm supernatant, mean ± SD (multi-species biofilms; [6]): 1021 ± 73 mg/L | butyrate level in biofilm supernatant, mean ± SD (multi-species biofilms; [6]): 0 ± 0 mg/L | formate level in biofilm supernatant, mean ± SD (multi-species biofilms; [6]): 75 ± 8 mg/L | lactate level in biofilm supernatant, mean ± SD (multi-species biofilms; [6]): 4187 ± 200 mg/L | propionate level in biofilm supernatant, mean ± SD (multi-species biofilms; [6]): 1577 ± 46 mg/L
